# According to PubChem BioAssay (NCI):
#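 Test compounds were applied to cells in 96-well plates for 48 hours at 5 doses. TGI: concentration producing complete growth inhibition.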
# Experiments:
# Experiment in all cases: inhibition of tumour cell growth, NCI panel, 48 h
# [1] = system: TK-10 renal
# [2] = system: UACC-257 melanoma
# [3] = system: IGROV1 ovarian
# [4] = system: LOX IMVI melanoma
# [5] = system: HOP-92 NSCLC
# [6] = system: T-47D breast
# [7] = system: RPMI-8226 leukemia
# [8] = system: U251 CNS
# [9] = system: BT-549 breast
# [10] = system: MOLT-4 leukemia
# [11] = system: PC-3 prostate
# [12] = system: CCRF-CEM leukemia
# [13] = system: UACC-62 melanoma
# [14] = system: MDA-N
# [15] = system: SK-MEL-2 melanoma
# [16] = system: SF-295 CNS
# [17] = system: SF-268 CNS
# [18] = system: COLO 205 colon
# [19] = system: EKVX NSCLC
# [20] = system: KM12 colon
# [21] = system: OVCAR-8 ovarian
# [22] = system: UO-31 renal
# [23] = system: SK-MEL-5 melanoma
# [24] = system: OVCAR-3 ovarian
# [25] = system: OVCAR-4 ovarian
# [26] = system: HL-60(TB) leukemia
# [27] = system: SK-OV-3 ovarian
# [28] = system: MCF7 breast
# [29] = system: NCI-H460 lung
# [30] = system: CAKI-1 renal
# [31] = system: SF-539 CNS
# [32] = system: M14 melanoma
# [33] = system: HCC-2998 colon
# [34] = system: NCI/ADR-RES ovarian
# [35] = system: MDA-MB-231 breast
# [36] = system: OVCAR-5 ovarian
# [37] = system: NCI-H522 lung
# [38] = system: HOP-62 NSCLC
# [39] = system: RXF 393 renal
# [40] = system: HCT-116 colon
# [41] = system: NCI-H226 lung
# [42] = system: HCT-15 colon
# [43] = system: 786-0 renal
# [44] = system: HT29 colon
# [45] = system: SW-620 colon
# [46] = system: SK-MEL-28 melanoma
# [47] = system: MALME-3M melanoma
# [48] = system: ACHN renal
# [49] = system: MDA-MB-435
# [50] = system: SNB-19 CNS
# [51] = system: A549 NSCLC
# [52] = system: SN12C renal
# [53] = system: NCI-H23 lung
# [54] = system: A498 renal
# [55] = system: SR leukemia
# [56] = system: HS 578T breast
# [57] = system: DU-145 prostate
# [58] = system: SNB-75 CNS
# [59] = system: K-562 leukemia
smiles,measurement,setting,value
C=C1c2[nH]c3ccccc3c2C2C(CC)C1CCN2C (configuration not stated),TGI,[1],> 100 µM
same,TGI,[2],95.6 µM
same,TGI,[3],> 100 µM
same,TGI,[4],> 100 µM
same,TGI,[5],> 100 µM
same,TGI,[6],> 100 µM
same,TGI,[7],88.8 µM
same,TGI,[8],> 100 µM
same,TGI,[9],> 100 µM
same,TGI,[10],> 100 µM
same,TGI,[11],> 100 µM
same,TGI,[12],> 100 µM
same,TGI,[13],> 100 µM
same,TGI,[14],> 100 µM
same,TGI,[15],> 100 µM
same,TGI,[16],> 100 µM
same,TGI,[17],> 100 µM
same,TGI,[18],58.9 µM
same,TGI,[19],> 100 µM
same,TGI,[20],> 100 µM
same,TGI,[21],> 100 µM
same,TGI,[22],> 100 µM
same,TGI,[23],> 100 µM
same,TGI,[24],> 100 µM
same,TGI,[25],> 100 µM
same,TGI,[26],> 100 µM
same,TGI,[27],> 100 µM
same,TGI,[28],> 100 µM
same,TGI,[29],> 100 µM
same,TGI,[30],> 100 µM
same,TGI,[31],> 100 µM
same,TGI,[32],67.6 µM
same,TGI,[33],37.8 µM
same,TGI,[34],> 100 µM
same,TGI,[35],> 100 µM
same,TGI,[36],> 100 µM
same,TGI,[37],> 100 µM
same,TGI,[38],> 100 µM
same,TGI,[39],> 100 µM
same,TGI,[40],> 100 µM
same,TGI,[41],> 100 µM
same,TGI,[42],> 100 µM
same,TGI,[43],> 100 µM
same,TGI,[44],> 100 µM
same,TGI,[45],> 100 µM
same,TGI,[46],77.2 µM
same,TGI,[47],56.5 µM
same,TGI,[48],> 100 µM
same,TGI,[49],> 100 µM
same,TGI,[50],> 100 µM
same,TGI,[51],> 100 µM
same,TGI,[52],> 100 µM
same,TGI,[53],> 100 µM
same,TGI,[54],70 µM
same,TGI,[55],74.8 µM
same,TGI,[56],> 100 µM
same,TGI,[57],> 100 µM
O=C(CCCNc1nc(-c2ccccc2)cs1)c1cccs1,TGI,[1],> 100 µM
same,TGI,[2],> 100 µM
same,TGI,[3],> 100 µM
same,TGI,[4],> 100 µM
same,TGI,[6],> 100 µM
same,TGI,[58],> 100 µM
same,TGI,[7],> 100 µM
same,TGI,[8],> 100 µM
same,TGI,[9],> 100 µM
same,TGI,[10],> 100 µM
same,TGI,[11],> 100 µM
same,TGI,[13],> 100 µM
same,TGI,[14],> 100 µM
same,TGI,[15],> 100 µM
same,TGI,[16],> 100 µM
same,TGI,[17],> 100 µM
same,TGI,[18],> 100 µM
same,TGI,[19],> 100 µM
same,TGI,[20],> 100 µM
same,TGI,[21],> 100 µM
same,TGI,[22],> 100 µM
same,TGI,[23],> 100 µM
same,TGI,[24],> 100 µM
same,TGI,[25],> 100 µM
same,TGI,[27],> 100 µM
same,TGI,[28],> 100 µM
same,TGI,[29],> 100 µM
same,TGI,[30],> 100 µM
same,TGI,[31],> 100 µM
same,TGI,[32],> 100 µM
same,TGI,[33],> 100 µM
same,TGI,[34],> 100 µM
same,TGI,[35],> 100 µM
same,TGI,[36],> 100 µM
same,TGI,[37],> 100 µM
same,TGI,[38],> 100 µM
same,TGI,[40],> 100 µM
same,TGI,[41],> 100 µM
same,TGI,[42],> 100 µM
same,TGI,[43],> 100 µM
same,TGI,[44],> 100 µM
same,TGI,[45],> 100 µM
same,TGI,[46],> 100 µM
same,TGI,[59],> 100 µM
same,TGI,[47],> 100 µM
same,TGI,[48],> 100 µM
same,TGI,[49],> 100 µM
same,TGI,[50],> 100 µM
same,TGI,[51],> 100 µM
same,TGI,[52],> 100 µM
same,TGI,[53],> 100 µM
same,TGI,[55],> 100 µM
same,TGI,[56],> 100 µM
O=C(O)CNc1ccc(C(=O)O)cc1,TGI,[1],> 100 µM
same,TGI,[2],> 100 µM
same,TGI,[3],> 100 µM
same,TGI,[4],> 100 µM
same,TGI,[5],> 100 µM
same,TGI,[6],> 100 µM
same,TGI,[58],> 100 µM
same,TGI,[7],> 100 µM
same,TGI,[8],> 100 µM
same,TGI,[9],> 100 µM
same,TGI,[10],> 100 µM
same,TGI,[11],> 100 µM
same,TGI,[12],> 100 µM
same,TGI,[13],> 100 µM
same,TGI,[14],> 100 µM
same,TGI,[15],> 100 µM
same,TGI,[16],> 100 µM
same,TGI,[17],> 100 µM
same,TGI,[18],> 100 µM
same,TGI,[19],> 100 µM
same,TGI,[20],> 100 µM
same,TGI,[21],> 100 µM
same,TGI,[22],> 100 µM
same,TGI,[23],> 100 µM
same,TGI,[24],> 100 µM
same,TGI,[25],> 100 µM
same,TGI,[26],> 100 µM
same,TGI,[27],> 100 µM
same,TGI,[28],> 100 µM
same,TGI,[29],> 100 µM
same,TGI,[30],> 100 µM
same,TGI,[31],> 100 µM
same,TGI,[32],> 100 µM
same,TGI,[34],> 100 µM
same,TGI,[35],> 100 µM
same,TGI,[36],> 100 µM
same,TGI,[37],> 100 µM
same,TGI,[38],> 100 µM
same,TGI,[39],> 100 µM
same,TGI,[40],> 100 µM
same,TGI,[41],> 100 µM
same,TGI,[42],> 100 µM
same,TGI,[43],> 100 µM
same,TGI,[44],> 100 µM
same,TGI,[45],> 100 µM
same,TGI,[46],> 100 µM
same,TGI,[59],> 100 µM
same,TGI,[47],> 100 µM
same,TGI,[48],> 100 µM
same,TGI,[49],> 100 µM
same,TGI,[50],> 100 µM
same,TGI,[51],> 100 µM
same,TGI,[52],> 100 µM
same,TGI,[53],> 100 µM
same,TGI,[54],> 100 µM
same,TGI,[56],> 100 µM
same,TGI,[57],> 100 µM
O=C(N/N=C/c1ccc([N+](=O)[O-])o1)c1ccc(C(=O)N/N=C/c2ccc([N+](=O)[O-])o2)cc1,TGI,[3],> 100 µM
same,TGI,[4],94.9 µM
same,TGI,[5],> 100 µM
same,TGI,[6],> 100 µM
same,TGI,[58],> 100 µM
same,TGI,[7],26.1 µM
same,TGI,[8],> 100 µM
same,TGI,[9],> 100 µM
same,TGI,[10],> 100 µM
same,TGI,[11],> 100 µM
same,TGI,[12],42.4 µM
same,TGI,[13],> 100 µM
same,TGI,[14],50.2 µM
same,TGI,[15],> 100 µM
same,TGI,[16],> 100 µM
same,TGI,[17],> 100 µM
same,TGI,[18],94.7 µM
same,TGI,[19],> 100 µM
same,TGI,[20],> 100 µM
same,TGI,[21],77.9 µM
same,TGI,[22],> 100 µM
same,TGI,[23],55.6 µM
same,TGI,[24],73.9 µM
same,TGI,[25],> 100 µM
same,TGI,[26],44.4 µM
same,TGI,[27],> 100 µM
same,TGI,[28],48.9 µM
same,TGI,[30],> 100 µM
same,TGI,[31],38.3 µM
same,TGI,[32],> 100 µM
same,TGI,[34],> 100 µM
same,TGI,[35],> 100 µM
same,TGI,[36],> 100 µM
same,TGI,[37],> 100 µM
same,TGI,[38],> 100 µM
same,TGI,[39],> 100 µM
same,TGI,[40],> 100 µM
same,TGI,[41],> 100 µM
same,TGI,[42],> 100 µM
same,TGI,[43],> 100 µM
same,TGI,[44],> 100 µM
same,TGI,[45],> 100 µM
same,TGI,[46],75.7 µM
same,TGI,[59],> 100 µM
same,TGI,[47],48.7 µM
same,TGI,[48],> 100 µM
same,TGI,[49],30.9 µM
same,TGI,[50],> 100 µM
same,TGI,[51],> 100 µM
same,TGI,[52],> 100 µM
same,TGI,[53],> 100 µM
same,TGI,[54],> 100 µM
same,TGI,[55],> 100 µM
same,TGI,[56],> 100 µM
same,TGI,[57],> 100 µM
